18 compounds from PubChem BioAssay (NCI) can be followed below.

Where “and” joins values, the source holds several entries; their conditions need not be identical. Identical values can stand only once.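 Results reflect a 48-hour exposure of cells in 96-well plates to compound at five concentrations. Abbreviation: GI50, concentration required for 50% inhibition of growth. Definition used: TGI = concentration required for complete inhibition of growth.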

For one test, the system named is SNB-75 CNS. The test is described as follows: NCI anticancer screen, dose series, 48 h.
With `COc1ccccc1N1C(=O)C2c3[nH]c4ccccc4c3C3CCC(C(C)(C)C)CC3C2C1=O` (stereo unspecified), the TGI is > 100 µM.

For the compound `O=C(O)CCC(NC(=O)c1ccc(Nc2nc3ccccc3nc2-c2cccs2)cc1)C(=O)O` (stereo unspecified), the TGI was > 100 µM.

As to `COc1cnc2c(c1)C(=O)c1c-2n(CCCN2CCOCC2)c(=O)c2cc(F)ccc12`, the GI50 is 0.362 µM and the TGI came out at 9.7 µM.

With `COC(=O)/C(C#N)=C1\NC(=O)c2ccccc21`, the TGI came to 76.9 µM.

As for `CC(C)=CCC\C(C)=C/C=C/C(C)=C\C=C\C(C)=C/C=C/C=C(C)\C=C\C=C(C)/C=C/C=C(/C)CCC=C(C)C`, the TGI is > 100 µM.

`CCCCCCCCCCCC(=O)OCCOCCOCCOCCOCCOCc1ccccc1`: the TGI is > 100 µM.

Take `CCCCCCCCCCCCCC(=O)OC(/C=C/C(C)C)C(O)C(O)C(OC)C(=O)NC1CCCCN(C)C1=O` (stereo unspecified): the TGI was 8.6 µM and > 49 µM.

`FC(F)(F)c1cccc(Nc2nc(-c3ccccc3)nc3ncccc23)c1`: the GI50 is 7.85 µM and the TGI stood at 31.3 µM.

On to `NC(=O)NO.O.O.O.O.O.O.O.O.O.O.O.[Ge].[Ge].[Ge].[Ge].[Ge].[O]=[Ge].[O]=[Ge].[O]=[Ge].[O]=[Ge].[O]=[Ge][OH]`, for which the TGI is > 100 µM.

`COc1cc2cc(OC)c3cc4c(cc3c2c(OC)c1OC)OCO4`: the TGI is > 46.1 µM.

Take `OCc1cc2ccccc2c2c3c(ccc12)OCO3`: the GI50 was 18.4 µM and the TGI worked out at 64 µM.

Take `COc1cc2c(cc1OCCCCN1CCN(CC(=O)Nc3ccc(Cl)cc3C(=O)c3ccccc3Cl)CC1)N=CC1CCCN1C2=O` (stereo unspecified): the GI50 was 0.223 µM and the TGI came to 0.572 µM.

Take `Cc1ccc(Cl)c2c(N=Nc3ccccc3[N+](=O)[O-])c(O)[nH]c12`: the TGI is > 100 µM.

The next test concerns NCI-H226 lung. The test is described as follows: NCI anticancer screen, dose series, 48 h.
In the case of `CN(C)C(=S)N=C(Nc1ccccc1)Nc1ccccc1`, the TGI was > 100 µM.

Take `CC1(C)C(=O)/C=C\C(=O)C(C)(C)C2=CC=C(O2)C(C)(C)C(=O)/C=C\C(=O)C(C)(C)C2=CC=C1O2`: the TGI is > 100 µM.

As for `COc1ccccc1N1C(=O)C2c3[nH]c4ccccc4c3C3CCC(C(C)(C)C)CC3C2C1=O` (stereo unspecified), the TGI is > 100 µM.

For `O=C(O)CCC(NC(=O)c1ccc(Nc2nc3ccccc3nc2-c2cccs2)cc1)C(=O)O` (stereo unspecified), the TGI is > 100 µM.

Turning to `COc1cnc2c(c1)C(=O)c1c-2n(CCCN2CCOCC2)c(=O)c2cc(F)ccc12`, the GI50 is 0.206 µM and the TGI worked out at 1.14 µM.

As to `COC(=O)/C(C#N)=C1\NC(=O)c2ccccc21`, the TGI was > 100 µM.

With `CC(C)=CCC\C(C)=C/C=C/C(C)=C\C=C\C(C)=C/C=C/C=C(C)\C=C\C=C(C)/C=C/C=C(/C)CCC=C(C)C`, the TGI is > 100 µM.

With `CCCCCCCCCCCC(=O)OCCOCCOCCOCCOCCOCc1ccccc1`, the TGI was > 100 µM.

As for `FC(F)(F)c1cccc(Nc2nc(-c3ccccc3)nc3ncccc23)c1`, the GI50 is 6.25 µM and the TGI was determined as 35.6 µM.

On to `CC(=O)OC1OC([C@@H]2c3cccc(O)c3C(=O)c3c(O)cc(C)cc32)C(O)C(O)C1O` (stereo partly specified), for which the GI50 was 0.012 µM and the TGI came out at 0.0806 µM.

With `NC(=O)NO.O.O.O.O.O.O.O.O.O.O.O.[Ge].[Ge].[Ge].[Ge].[Ge].[O]=[Ge].[O]=[Ge].[O]=[Ge].[O]=[Ge].[O]=[Ge][OH]`, the TGI was > 100 µM.

Regarding `Cc1ccsc1C(=S)Nc1ccc(Cl)c(/C=N/OC(C)(C)C)c1`, the TGI was > 100 µM.

`COc1cc2cc(OC)c3cc4c(cc3c2c(OC)c1OC)OCO4`: the TGI is > 100 µM.

In the case of `OCc1cc2ccccc2c2c3c(ccc12)OCO3`, the GI50 is 23.7 µM and the TGI turned out to be 163 µM.

In the case of `COc1cc2c(cc1OCCCCN1CCN(CC(=O)Nc3ccc(Cl)cc3C(=O)c3ccccc3Cl)CC1)N=CC1CCCN1C2=O` (stereo unspecified), the GI50 is 0.483 µM and the TGI came out at 1.44 µM.

On to `Cc1ccc(Cl)c2c(N=Nc3ccccc3[N+](=O)[O-])c(O)[nH]c12`, for which the TGI is > 100 µM.

The test system of the next test is SR leukemia. Description: NCI anticancer screen, dose series, 48 h.
On to `CCN1CCN(Cc2ccc(NC(=O)c3cccc(C#Cc4cccc5[nH]nc(N)c45)c3)cc2C(F)(F)F)CC1`, for which the GI50 is 0.238 µM and the TGI turned out to be 0.732 µM.

In the case of `CN(C)C(=S)N=C(Nc1ccccc1)Nc1ccccc1`, the TGI is > 100 µM.

`CC1(C)C(=O)/C=C\C(=O)C(C)(C)C2=CC=C(O2)C(C)(C)C(=O)/C=C\C(=O)C(C)(C)C2=CC=C1O2`: the TGI is > 100 µM.

On to `COc1ccccc1N1C(=O)C2c3[nH]c4ccccc4c3C3CCC(C(C)(C)C)CC3C2C1=O` (stereo unspecified), for which the TGI was > 100 µM.

For the compound `O=C(O)CCC(NC(=O)c1ccc(Nc2nc3ccccc3nc2-c2cccs2)cc1)C(=O)O` (stereo unspecified), the TGI was > 100 µM.

Regarding `COc1cnc2c(c1)C(=O)c1c-2n(CCCN2CCOCC2)c(=O)c2cc(F)ccc12`, the GI50 is 0.0829 µM and the TGI worked out at 1.27 µM.

Consider `COC(=O)/C(C#N)=C1\NC(=O)c2ccccc21`, for which the TGI is > 100 µM.

Turning to `CC(C)=CCC\C(C)=C/C=C/C(C)=C\C=C\C(C)=C/C=C/C=C(C)\C=C\C=C(C)/C=C/C=C(/C)CCC=C(C)C`, the TGI is > 100 µM.

For the compound `CCCCCCCCCCCC(=O)OCCOCCOCCOCCOCCOCc1ccccc1`, the TGI is > 100 µM.

For the compound `CCCCCCCCCCCCCC(=O)OC(/C=C/C(C)C)C(O)C(O)C(OC)C(=O)NC1CCCCN(C)C1=O` (stereo unspecified), the GI50 was 1.12 µM; the TGI was 4.78 µM and 5.75 µM.

As for `FC(F)(F)c1cccc(Nc2nc(-c3ccccc3)nc3ncccc23)c1`, the GI50 was 2.61 µM and the TGI turned out to be 13.3 µM.

On to `CC(=O)OC1OC([C@@H]2c3cccc(O)c3C(=O)c3c(O)cc(C)cc32)C(O)C(O)C1O` (stereo partly specified), for which the GI50 is 0.032 µM and the TGI amounted to 0.0859 µM.

Take `NC(=O)NO.O.O.O.O.O.O.O.O.O.O.O.[Ge].[Ge].[Ge].[Ge].[Ge].[O]=[Ge].[O]=[Ge].[O]=[Ge].[O]=[Ge].[O]=[Ge][OH]`: the TGI was > 100 µM.

In turn, `Cc1ccsc1C(=S)Nc1ccc(Cl)c(/C=N/OC(C)(C)C)c1` displayed a TGI of 61.7 µM.

As to `COc1cc2cc(OC)c3cc4c(cc3c2c(OC)c1OC)OCO4`, the TGI is 82.6 µM.

As for `OCc1cc2ccccc2c2c3c(ccc12)OCO3`, the GI50 was 28.4 µM and the TGI is 76.8 µM.

`COc1cc2c(cc1OCCCCN1CCN(CC(=O)Nc3ccc(Cl)cc3C(=O)c3ccccc3Cl)CC1)N=CC1CCCN1C2=O` (stereo unspecified): the GI50 was 0.138 µM and the TGI worked out at 0.456 µM.

Take `Cc1ccc(Cl)c2c(N=Nc3ccccc3[N+](=O)[O-])c(O)[nH]c12`: the TGI was > 100 µM.

A further test relates to COLO 205 colon. The test is described as follows: NCI anticancer screen, dose series, 48 h.
Turning to `CCN1CCN(Cc2ccc(NC(=O)c3cccc(C#Cc4cccc5[nH]nc(N)c45)c3)cc2C(F)(F)F)CC1`, the GI50 was 0.185 µM and the TGI was found to be 1.28 µM.

On to `CN(C)C(=S)N=C(Nc1ccccc1)Nc1ccccc1`, for which the TGI is > 100 µM.

Take `CC1(C)C(=O)/C=C\C(=O)C(C)(C)C2=CC=C(O2)C(C)(C)C(=O)/C=C\C(=O)C(C)(C)C2=CC=C1O2`: the TGI is > 100 µM.

With `COc1ccccc1N1C(=O)C2c3[nH]c4ccccc4c3C3CCC(C(C)(C)C)CC3C2C1=O` (stereo unspecified), the TGI is > 100 µM.

For the compound `COC(=O)/C(C#N)=C1\NC(=O)c2ccccc21`, the TGI was > 100 µM.

As to `CC(C)=CCC\C(C)=C/C=C/C(C)=C\C=C\C(C)=C/C=C/C=C(C)\C=C\C=C(C)/C=C/C=C(/C)CCC=C(C)C`, the TGI was > 100 µM.

Regarding `CCCCCCCCCCCC(=O)OCCOCCOCCOCCOCCOCc1ccccc1`, the TGI was > 100 µM.

For the compound `FC(F)(F)c1cccc(Nc2nc(-c3ccccc3)nc3ncccc23)c1`, the GI50 is 4.07 µM and the TGI stood at 13.9 µM.

On to `CC(=O)OC1OC([C@@H]2c3cccc(O)c3C(=O)c3c(O)cc(C)cc32)C(O)C(O)C1O` (stereo partly specified), for which the GI50 was 0.0429 µM and the TGI amounted to 2.68 µM.

As for `NC(=O)NO.O.O.O.O.O.O.O.O.O.O.O.[Ge].[Ge].[Ge].[Ge].[Ge].[O]=[Ge].[O]=[Ge].[O]=[Ge].[O]=[Ge].[O]=[Ge][OH]`, the TGI was > 100 µM.

`Cc1ccsc1C(=S)Nc1ccc(Cl)c(/C=N/OC(C)(C)C)c1` gave a TGI of 33.7 µM.

Turning to `COc1cc2cc(OC)c3cc4c(cc3c2c(OC)c1OC)OCO4`, the TGI was found to be 44.4 µM.

On to `OCc1cc2ccccc2c2c3c(ccc12)OCO3`, for which the GI50 is 18.8 µM and the TGI was 37.4 µM.

Turning to `COc1cc2c(cc1OCCCCN1CCN(CC(=O)Nc3ccc(Cl)cc3C(=O)c3ccccc3Cl)CC1)N=CC1CCCN1C2=O` (stereo unspecified), the GI50 is 0.175 µM and the TGI came out at 0.335 µM.

Consider `Cc1ccc(Cl)c2c(N=Nc3ccccc3[N+](=O)[O-])c(O)[nH]c12`, for which the TGI is > 100 µM.

The next test relates to NCI/ADR-RES ovarian. Description: NCI anticancer screen, dose series, 48 h.
With `CCN1CCN(Cc2ccc(NC(=O)c3cccc(C#Cc4cccc5[nH]nc(N)c45)c3)cc2C(F)(F)F)CC1`, the GI50 was 1.59 µM and the TGI came out at 5.21 µM.

As for `COc1cnc2c(c1)C(=O)c1c-2n(CCCN2CCOCC2)c(=O)c2cc(F)ccc12`, the GI50 is 0.299 µM and the TGI was > 100 µM.

In the case of `CC(C)=CCC\C(C)=C/C=C/C(C)=C\C=C\C(C)=C/C=C/C=C(C)\C=C\C=C(C)/C=C/C=C(/C)CCC=C(C)C`, the TGI was > 100 µM.

As to `FC(F)(F)c1cccc(Nc2nc(-c3ccccc3)nc3ncccc23)c1`, the GI50 was 4.07 µM and the TGI worked out at 23.5 µM.

Turning to `CC(=O)OC1OC([C@@H]2c3cccc(O)c3C(=O)c3c(O)cc(C)cc32)C(O)C(O)C1O` (stereo partly specified), the GI50 is 0.0391 µM and the TGI was determined as 0.773 µM.

Take `Cc1ccsc1C(=S)Nc1ccc(Cl)c(/C=N/OC(C)(C)C)c1`: the TGI was > 100 µM.

With `OCc1cc2ccccc2c2c3c(ccc12)OCO3`, the GI50 was 29.6 µM and the TGI stood at 126 µM.

With `Cc1ccc(Cl)c2c(N=Nc3ccccc3[N+](=O)[O-])c(O)[nH]c12`, the TGI was > 100 µM.
